{
  "source": "patent US20240307504A1",
  "about": "“INTRANASAL FORMULATIONS AND DELIVERY OF SOMATOSTATIN MIMETICS AND USES THEREOF” (NBO PHARMA LLC, priority 2021, published 2024)",
  "origin": "cited, not measured here",
  "note": "Like-named read-outs stand apart in the source and are kept apart here.",
  "data": [
    {"molecule": "C[C@@H](O)[C@@H]1NC(=O)[C@H](CCCCN)NC(=O)[C@@H](Cc2c[nH]c3ccccc23)NC(=O)[C@H](Cc2ccccc2)NC(=O)[C@@H](NC(=O)[C@H](N)Cc2ccccc2)CSSC[C@@H](C(=O)N[C@H](CO)[C@@H](C)O)NC1=O", "note": "[Octreotide]", "values": [
      {"measurement": "biological half-life", "setting": "after intravenous administration", "result": 72, "unit": "minutes"},
      {"measurement": "biological half-life", "setting": "after subcutaneous administration", "result": 102, "unit": "minutes"}
    ]},
    {"molecule": "L-alanyl-glycyl-L-cysteinyl-L-lysyl-L-asparagyl-L-phenylalanyl-L-phenylalanyl-L-tryptophyl-L-lysyl-L-threonyl-L-phenylalanyl-L-threonyl-L-seryl-L-cysteine (3->14)-disulfide [somatostatin]", "values": [
      {"measurement": "biological half-life", "setting": "in vivo", "result": "2-3 minutes"}
    ]}
  ]
}
